Assay results: patent publication US20020137929A1, “1 - (3-heterocyclylphenyl) isothiourea, -isourea, -guanidine and -amidine herbicidal agents” (Intellectual Property Department, BASF Aktiengesellschaft, priority 1998, published 2002)

Experiments:
ORYSAT (Rice, Tebonnet) = assay: Preemergence herbicidal evaluation; type: in vivo, Oryza sativa, (L.) Tebonnet; settings: rated 4-5 weeks after treatment; for ORYSAT rating: preemergence, 0-9 scale
Outline: (§1)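 Scores (0–9) reflect visual comparison with control plants for stand, vigor, malformation, size and chlorosis. Compound was applied to the soil after sowing, before emergence, as an aqueous acetone spray (about 0.0156–0.500 kg/ha), and cups were kept in a greenhouse for 4–5 weeks.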

[1] = tested on: IPOHE (Morningglory, Ivyleaf); assay: Preemergence herbicidal evaluation; type: in vivo, Ipomoea hederacea; settings: rated 4-5 weeks after treatment; for IPOHE rating: preemergence, 0-9 scale
Outline: as §1

CYPIR (Rice Flatsedge) = assay: Postemergence weed control under flooded paddy conditions; type: in vivo, Cyperus iria; settings: postemergence weeds
Outline: (§2)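 Weeds 3 to 5 cm tall and rice seedlings at the 1.5 to 2.5 leaf stage were flooded, with water held 1.5 to 3 cm above the soil. Compounds in 50/50 v/v aqueous/acetone went into the flood water at about 0.0313 to 0.500 kg/ha. Visual 0-9 ratings versus control were made 3 to 4 weeks later.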

ABUTH (Velvetleaf) = assay: Postemergence herbicidal evaluation; type: in vivo, Abutilon theophrasti; settings: for ABUTH herbicidal rating: postemergence
Outline: (§3)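 Two-week seedlings sprayed postemergence at 40 psi; formulation: 1:1 acetone/water, 0.5% TWEEN 20; application ≈0.0156–0.500 kg/ha. Greenhouse grow-out, then 0–9 visual scoring at 4–5 weeks.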

[2] = tested on: ECHORC (Watergrass (Calif.)); assay: Postemergence weed control under flooded paddy conditions; type: in vivo, Echinochloa oryzoides; settings: postemergence weeds
Outline: as §2

[3] = tested on: CHEAL (Lambsquarters, Common); assay: Preemergence herbicidal evaluation; type: in vivo, Chenopodium album; settings: rated 4-5 weeks after treatment; for CHEAL rating: preemergence, 0-9 scale
Outline: as §1

SETVI (Foxtail, Green) = assay: Preemergence herbicidal evaluation; type: in vivo, Setaria viridis; settings: rated 4-5 weeks after treatment; for SETVI rating: preemergence, 0-9 scale
Outline: as §1

ECHCG (Barnyardgrass) = assay: Preemergence herbicidal evaluation; type: in vivo, Echinochloa crus-galli; settings: rated 4-5 weeks after treatment; for ECHCG rating: preemergence, 0-9 scale
Outline: as §1

[4] = tested on: TRZAWR (Wheat, Winter, cv Riband); assay: Postemergence herbicidal evaluation; type: in vivo, Triticum aestivum; settings: for TRZAWR herbicidal rating: postemergence
Outline: as §3

[5] = tested on: IPOHE (Morningglory, Ivyleaf); assay: Postemergence herbicidal evaluation; type: in vivo, Ipomoea hederacea; settings: for IPOHE herbicidal rating: postemergence
Outline: as §3

[6] = tested on: ECHORC (Watergrass (Calif.)); assay: Preemergence weed control under flooded paddy conditions; type: in vivo, Echinochloa oryzoides; settings: rated 3-4 weeks after treatment
Outline: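 Flooded-pot preemergence screen with silt loam and seeds in the upper 0.5 cm. Dose about 0.0313 to 0.500 kg/ha, delivered into flood water; visual 0-9 score after 3 to 4 weeks.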

[7] = tested on: TRZAWR (Wheat, Winter, cv Riband); assay: Preemergence herbicidal evaluation; type: in vivo, Triticum aestivum; settings: rated 4-5 weeks after treatment; for TRZAWR rating: preemergence, 0-9 scale
Outline: as §1

[8] = Rate 0.0313 kg/ha, rated 3 to 4 weeks after treatment
[9] = Rate 0.0625 kg/ha, rated 3 to 4 weeks after treatment
[10] = Rate 0.1250 kg/ha, rated 3 to 4 weeks after treatment
[11] = Rate 0.2500 kg/ha, rated 3 to 4 weeks after treatment
[12] = rate 0.0313 kg/ha, 3-4 weeks after treatment
[13] = rate 0.0625 kg/ha, 3-4 weeks after treatment
[14] = rate 0.1250 kg/ha, 3-4 weeks after treatment
[15] = rate 0.2500 kg/ha, 3-4 weeks after treatment

CCOC(=O)CN1C(=O)C(CC(=O)OCCF)SC1=Nc1cc(-n2c(=O)cc(C(F)(F)F)n(C)c2=O)c(F)cc1Cl (stereo not drawn) [Compound 82, 2-{{2-Chloro-5-[3,6-dihydro-3-methyl-2,6-dioxo-4-(trifluoromethyl)-1(2H)-pyrimidinyl]-4-fluoro-phenyl}imino}-4-oxo-3,5-thiazolidinediacetic acid, 3-ethyl 2-fluoroethyl ester]
ORYSAT rating (ORYSAT (Rice, Tebonnet); 0.0156 kg/ha): 0.0 | ORYSAT rating (ORYSAT (Rice, Tebonnet); 0.0313 kg/ha): 0.0 | ORYSAT rating (ORYSAT (Rice, Tebonnet); 0.0625 kg/ha): 0.0 | ORYSAT rating (ORYSAT (Rice, Tebonnet); 0.1250 kg/ha): 0.0 | ORYSAT rating (ORYSAT (Rice, Tebonnet); 0.2500 kg/ha): 0.0 | IPOHE rating ([1]; 0.0156 kg/ha): 0.0 | IPOHE rating ([1]; 0.0313 kg/ha): 0.0 | IPOHE rating ([1]; 0.0625 kg/ha): 4.0 | IPOHE rating ([1]; 0.1250 kg/ha): 9.0 | IPOHE rating ([1]; 0.2500 kg/ha): 9.0 | Herbicidal rating CYPIR (CYPIR (Rice Flatsedge); [8]): 0.0 | Herbicidal rating CYPIR (CYPIR (Rice Flatsedge); [9]): 0.0 | Herbicidal rating CYPIR (CYPIR (Rice Flatsedge); [10]): 3.0 | Herbicidal rating CYPIR (CYPIR (Rice Flatsedge); [11]): 3.0 | ABUTH herbicidal rating (ABUTH (Velvetleaf); rate 0.0158 kg/ha): 9.0 | ABUTH herbicidal rating (ABUTH (Velvetleaf); rate 0.0315 kg/ha): 9.0 | ABUTH herbicidal rating (ABUTH (Velvetleaf); rate 0.0630 kg/ha): 9.0 | Herbicidal rating ECHORC [2, 8]: 4.0 | Herbicidal rating ECHORC [2, 9]: 4.0 | Herbicidal rating ECHORC [2, 10]: 6.0 | Herbicidal rating ECHORC [2, 11]: 9.0 | CHEAL rating ([3]; 0.0156 kg/ha): 9.0 | CHEAL rating ([3]; 0.0313 kg/ha): 9.0 | CHEAL rating ([3]; 0.0625 kg/ha): 9.0 | CHEAL rating ([3]; 0.1250 kg/ha): 9.0 | CHEAL rating ([3]; 0.2500 kg/ha): 9.0 | SETVI rating (SETVI (Foxtail, Green); 0.0156 kg/ha): 0.0 | SETVI rating (SETVI (Foxtail, Green); 0.0313 kg/ha): 0.0 | SETVI rating (SETVI (Foxtail, Green); 0.0625 kg/ha): 7.0 | SETVI rating (SETVI (Foxtail, Green); 0.1250 kg/ha): 9.0 | SETVI rating (SETVI (Foxtail, Green); 0.2500 kg/ha): 9.0 | ECHCG rating (ECHCG (Barnyardgrass); 0.0156 kg/ha): 0.0 | ECHCG rating (ECHCG (Barnyardgrass); 0.0313 kg/ha): 0.0 | ECHCG rating (ECHCG (Barnyardgrass); 0.0625 kg/ha): 0.0 | ECHCG rating (ECHCG (Barnyardgrass); 0.1250 kg/ha): 3.0 | ECHCG rating (ECHCG (Barnyardgrass); 0.2500 kg/ha): 7.0 | TRZAWR herbicidal rating ([4]; rate 0.0158 kg/ha): 7.5 | TRZAWR herbicidal rating ([4]; rate 0.0315 kg/ha): 7.5 | TRZAWR herbicidal rating ([4]; rate 0.0630 kg/ha): 8.5 | IPOHE herbicidal rating ([5]; rate 0.0158 kg/ha): 9.0 | IPOHE herbicidal rating ([5]; rate 0.0315 kg/ha): 9.0 | IPOHE herbicidal rating ([5]; rate 0.0630 kg/ha): 9.0 | ECHORC herbicidal effect rating ([6]; 0.0313 kg/ha): 4.0 | ECHORC herbicidal effect rating ([6]; 0.0625 kg/ha): 4.0 | ECHORC herbicidal effect rating ([6]; 0.1250 kg/ha): 6.0 | ECHORC herbicidal effect rating ([6]; 0.2500 kg/ha): 9.0 | TRZAWR rating ([7]; 0.0156 kg/ha): 0.0 | TRZAWR rating ([7]; 0.0313 kg/ha): 0.0 | TRZAWR rating ([7]; 0.0625 kg/ha): 0.0 | TRZAWR rating ([7]; 0.1250 kg/ha): 0.0 | TRZAWR rating ([7]; 0.2500 kg/ha): 0.0

CCOC(=O)CN1CCSC1=Nc1cc(-n2nc(C)n(C(F)F)c2=O)c(F)cc1Cl [Compound 36]
Preemergence herbicidal rating ORYSAT (ORYSAT (Rice, Tebonnet); rate 0.0625 kg/ha): 0.0 | Preemergence herbicidal rating ORYSAT (ORYSAT (Rice, Tebonnet); rate 0.1250 kg/ha): 0.0 | Preemergence herbicidal rating ORYSAT (ORYSAT (Rice, Tebonnet); rate 0.2500 kg/ha): 4.0 | Preemergence herbicidal rating IPOHE ([1]; rate 0.0625 kg/ha): 0.0 | Preemergence herbicidal rating IPOHE ([1]; rate 0.1250 kg/ha): 0.0 | Preemergence herbicidal rating IPOHE ([1]; rate 0.2500 kg/ha): 0.0 | Herbicidal rating CYPIR (CYPIR (Rice Flatsedge); [12]): 0.0 | Herbicidal rating CYPIR (CYPIR (Rice Flatsedge); [13]): 5.0 | Herbicidal rating CYPIR (CYPIR (Rice Flatsedge); [14]): 5.0 | Herbicidal rating CYPIR (CYPIR (Rice Flatsedge); [15]): 9.0 | Postemergence herbicidal rating ABUTH (ABUTH (Velvetleaf); Rate 0.0158 kg/ha): 9.0 | Postemergence herbicidal rating ABUTH (ABUTH (Velvetleaf); Rate 0.0315 kg/ha): 9.0 | Postemergence herbicidal rating ABUTH (ABUTH (Velvetleaf); Rate 0.0630 kg/ha): 9.0 | Herbicidal rating ECHORC [2, 12]: 4.0 | Herbicidal rating ECHORC [2, 13]: 6.0 | Herbicidal rating ECHORC [2, 14]: 7.0 | Herbicidal rating ECHORC [2, 15]: 9.0 | Preemergence herbicidal rating CHEAL ([3]; rate 0.0625 kg/ha): 0.0 | Preemergence herbicidal rating CHEAL ([3]; rate 0.1250 kg/ha): 9.0 | Preemergence herbicidal rating CHEAL ([3]; rate 0.2500 kg/ha): 9.0 | Preemergence herbicidal rating SETVI (SETVI (Foxtail, Green); rate 0.0625 kg/ha): 0.0 | Preemergence herbicidal rating SETVI (SETVI (Foxtail, Green); rate 0.1250 kg/ha): 9.0 | Preemergence herbicidal rating SETVI (SETVI (Foxtail, Green); rate 0.2500 kg/ha): 9.0 | Preemergence herbicidal rating ECHCG (ECHCG (Barnyardgrass); rate 0.0625 kg/ha): 0.0 | Preemergence herbicidal rating ECHCG (ECHCG (Barnyardgrass); rate 0.1250 kg/ha): 2.0 | Preemergence herbicidal rating ECHCG (ECHCG (Barnyardgrass); rate 0.2500 kg/ha): 6.0 | Postemergence herbicidal rating TRZAWR ([4]; Rate 0.0158 kg/ha): 1.5 | Postemergence herbicidal rating TRZAWR ([4]; Rate 0.0315 kg/ha): 2.5 | Postemergence herbicidal rating TRZAWR ([4]; Rate 0.0630 kg/ha): 3.5 | Postemergence herbicidal rating IPOHE ([5]; Rate 0.0158 kg/ha): 9.0 | Postemergence herbicidal rating IPOHE ([5]; Rate 0.0315 kg/ha): 9.0 | Postemergence herbicidal rating IPOHE ([5]; Rate 0.0630 kg/ha): 9.0 | Herbicidal rating ECHORC ([6]; 0.0313 kg/ha): 4.0 | Herbicidal rating ECHORC ([6]; 0.0625 kg/ha): 6.0 | Herbicidal rating ECHORC ([6]; 0.1250 kg/ha): 7.0 | Herbicidal rating ECHORC ([6]; 0.2500 kg/ha): 9.0 | Preemergence herbicidal rating TRZAWR ([7]; rate 0.0625 kg/ha): 0.0 | Preemergence herbicidal rating TRZAWR ([7]; rate 0.1250 kg/ha): 1.0 | Preemergence herbicidal rating TRZAWR ([7]; rate 0.2500 kg/ha): 0.0
